For 34 compounds, IC50 results are on record in US20100234377A1 (priority 2007, published 2010).

One may read the pIC50 as −log10 of the IC50, conventionally taken in molar units.

pIC50: −log10 of the molar value.

The target in this test is T1, human Prostaglandin D Synthase (GST2) (Homo sapiens, UniProt O60760).
T1 construct: the open reading frame of human Prostaglandin D Synthase was amplified from cDNA; made in house; host or cells: E. coli TOP10F'
T1 sequence (O60760 whole entry): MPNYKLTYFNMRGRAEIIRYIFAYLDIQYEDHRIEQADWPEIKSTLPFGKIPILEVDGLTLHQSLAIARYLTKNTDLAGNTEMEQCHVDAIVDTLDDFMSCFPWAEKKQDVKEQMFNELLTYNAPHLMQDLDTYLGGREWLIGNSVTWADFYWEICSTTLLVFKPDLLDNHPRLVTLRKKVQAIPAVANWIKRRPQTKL
As to the kind of experiment: Homogeneous biochemical assay of human Prostaglandin D Synthase (GST2) based on its glutathion-S-transferase activity (GSH conjugation to monochlorobimane, fluorescence). As to conditions: given beside the compound name in Examples 1 to 167; read-out: Potency Range (GST2 IC50). The source says: Homogeneous, Biochemical Assay Monitoring the Activity of Human Prostaglandin D Synthase Based on the Glutathion-S-Transferase Activity of the Enzyme
Prostaglandin D2 synthesis by Prostaglandin D synthase (GST2) requires transfer of Glutathion (GSH) to the substrate, Prostaglandin H2. […] Since the Prostaglandin D2 synthesis is absolutely dependent on the GST activity of the enzyme, assays monitoring the GST activity should allow to identify specific inhibitors of Prostaglandin D2 synthetic activity. The assay principle used is based on enzymatic conjugation of GSH to Monochlorobimane (MCB), that becomes fluorescent upon this chemical modification. Therefore, the enzymatic reaction can be monitored by total fluorescence measurement.
In brief, the open reading frame of human Prostaglandin D Synthase was amplified from cDNA using the primer pair:
This construct allows prokaryotic expression of Prostaglandin D Synthase as fusion protein with a N-terminal hexa-histidine tag, referred to as NHis-Prostaglandin D Synthase.
Expression of NHis-Prostaglandin D Synthase was in E. coli TOP10F′ (Invitrogen, Germany, cat. no. C3030-03). […] When the culture had reached a density corresponding to an A600 of 0.6, an equal volume of room temperature LB/ampicillin was added. […] Cells harvested by centrifugation were resuspended in 50 mM tris(hydroxymethyl)aminomethane hydrochloride pH 7.5 (Tris/HCl, Sigma, cat. no. T5941).
Removal of unbound material was with 100 ml lysis buffer. Elution was with 50 ml of 50 mM Tris/HCl pH 7.5, 300 mM imidazol (Sigma, Germany, cat. no. I2399)/HCl pH 7.5). […] Aliquots were shock frozen in liquid nitrogen and stored at −80° C.
All assay components were diluted in reaction buffer, 50 mM MES/KOH (pH 6.1), 0.7 mM GSH (Sigma, G4251), 2 mM MgCl2 (Sigma, M2670), 0.05% Pluronic F127 (Sigma, P2443), and stored on ice prior to use. Compounds were diluted in 90% DMSO yielding final assay concentrations from the picomolar to three digit micromolar range.
Total fluorescent measurement was carried out with excitation and emission wavelength of 390 and 460 nm, respectively (BMG Fluostar Optima).
As to “4-(3-Fluoro-benzoyl)-piperazine-1-carboxylic acid [4-(2-methyl-thiazol-3-yl)-phenyl]-amide [Compound 29]”, the pIC50 is 7.00 to 7.96. For the compound `CC(C)(C)c1ccc(NC(=S)N2CCN(C(=O)c3ccccc3)CC2)cc1` [Compound 1, 4-Benzoyl-piperazine-1-carbothioic acid (4-tert-butyl-phenyl)-amide], the pIC50 was 8.00 to 9.00. For `CN(C)c1ccc(NC(=S)N2CCN(C(=O)c3ccccc3)CC2)cc1` [Compound 2, 4-Benzoyl-piperazine-1-carbothioic acid (4-dimethylamino-phenyl)-amide], the pIC50 was 8.00 to 9.00. The same measure for `O=C(c1ccccc1)N1CCN(C(=S)Nc2ccc([N+](=O)[O-])cc2)CC1` [Compound 3, 4-Benzoyl-piperazine-1-carbothioic acid (4-nitro-phenyl)-amide]: 7.00 to 7.96; for `O=C(c1ccccc1)N1CCN(C(=S)Nc2ccc(F)cc2)CC1` [Compound 4, 4-Benzoyl-piperazine-1-carbothioic acid (4-fluoro-phenyl)-amide]: 6.00 to 7.00.

Turning to `O=C(c1ccccc1)N1CCN(C(=S)Nc2cccc3ccccc23)CC1` [Compound 5, 4-Benzoyl-piperazine-1-carbothioic acid naphthalen-1-ylamide], the pIC50 was 7.00 to 7.96. The same measure for `COC(=O)c1ccc(NC(=S)N2CCN(C(=O)c3ccccc3)CC2)cc1` [Compound 6, 4-[(4-Benzoyl-piperazine-1-carbothioyl)-amino]-benzoic acid methyl ester]: 7.00 to 7.96.

On to `Cc1ccc(NC(=S)N2CCN(C(=O)c3ccccc3)CC2)cc1` [Compound 7, 4-Benzoyl-piperazine-1-carbothioic acid p-tolylamide], for which the negative logarithm of the IC50 (pIC50) is 6.00 to 7.00. Turning to `CC(C)(C)c1ccc(NC(=S)N2CCN(C(=O)c3ccc(F)cc3)CC2)cc1` [Compound 8, 4-(4-Fluoro-benzoyl)-piperazine-1-carbothioic acid (4-tert-butyl-phenyl)-amide], the pIC50 is 7.00 to 7.96. Take `O=C(c1ccc(F)cc1)N1CCN(C(=S)Nc2ccc(Oc3ccccc3)cc2)CC1` [Compound 9, 4-(4-Fluoro-benzoyl)-piperazine-1-carbothioic acid (4-phenoxy-phenyl)-amide]: the pIC50 is 6.00 to 7.00. As to `CN(C)c1ccc(NC(=S)N2CCN(C(=O)c3ccc(F)cc3)CC2)cc1` [Compound 10, 4-(4-Fluoro-benzoyl)-piperazine-1-carbothioic acid (4-dimethylamino-phenyl)-amide], the pIC50 is 6.00 to 7.00. As to `COC(=O)c1ccc(NC(=S)N2CCN(C(=O)c3ccc(F)cc3)CC2)cc1` [Compound 11, 4-{[4-(4-Fluoro-benzoyl)-piperazine-1-carbothioyl]-amino}-benzoic acid methyl ester], the negative-log IC50 (pIC50) is 6.00 to 7.00. Regarding `COc1ccc(NC(=S)N2CCN(C(=O)c3ccc(F)cc3)CC2)cc1` [Compound 12, 4-(4-Fluoro-benzoyl)-piperazine-1-carbothioic acid (4-methoxy-phenyl)-amide], the pIC50 was 6.00 to 7.00. The same measure for `Cc1ccc(NC(=S)N2CCN(C(=O)c3ccc(F)cc3)CC2)cc1` [Compound 13, 4-(4-Fluoro-benzoyl)-piperazine-1-carbothioic acid p-tolylamide]: 6.00 to 7.00.

As to `CN(C)c1ccc(NC(=S)N2CCN(C(=O)c3cccnc3)CC2)cc1` [Compound 14, 4-(Pyridine-3-carbonyl)-piperazine-1-carbothioic acid (4-dimethylamino-phenyl)-amide], the pIC50 was 6.00 to 7.00.

As for `O=C(c1cccc(F)n1)N1CCN(C(=S)Nc2ccc(Oc3ccccc3)cc2)CC1` [Compound 17, 4-(6-Fluoro-pyridine-2-carbonyl)-piperazine-1-carbothioic acid (4-phenoxy-phenyl)-amide], the pIC50 is 6.00 to 7.00. As for `O=C(c1cccc(F)n1)N1CCN(C(=S)Nc2ccc(OC(F)F)cc2)CC1` [Compound 18, 4-(6-Fluoro-pyridine-2-carbonyl)-piperazine-1-carbothioic acid (4-difluoromethoxy-phenyl)-amide], the pIC50 is 6.00 to 7.00. The same measure for `O=C(c1cccc(F)n1)N1CCN(C(=S)Nc2ccc(OC(F)(F)F)cc2)CC1` [Compound 19, 4-(6-Fluoro-pyridine-2-carbonyl)-piperazine-1-carbothioic acid (4-trifluoromethoxy-phenyl)-amide]: 6.00 to 7.00; for `O=C(c1cccc(F)n1)N1CCN(C(=S)Nc2ccc(C(F)(F)F)cc2)CC1` [Compound 20, 4-(6-Fluoro-pyridine-2-carbonyl)-piperazine-1-carbothioic acid (4-trifluoromethyl-phenyl)-amide]: 6.00 to 7.00.

As for `O=C(c1cccc(F)c1)N1CCN(C(=S)Nc2ccc(C(F)(F)F)cc2)CC1` [Compound 23, 4-(3-Fluoro-benzoyl)-piperazine-1-carbothioic acid (4-trifluoromethyl-phenyl)-amide], the pIC50 was 7.00 to 7.96. As to `O=C(Nc1cc(Cl)nc(Cl)c1)N1CCN(C(=O)c2cccc(F)c2)CC1` [Compound 24, 4-(3-Fluoro-benzoyl)-piperazine-1-carboxylic acid (2,6-dichloro-pyridin-4-yl)-amide], the pIC50 is 6.00 to 7.00. With `O=C(Nc1cccc(Oc2ccccc2)c1)N1CCN(C(=O)c2cccc(F)c2)CC1` [Compound 25, 4-(3-Fluoro-benzoyl)-piperazine-1-carboxylic acid (3-phenoxy-phenyl)-amide], the pIC50 was 7.00 to 7.96. The result for `O=C(Nc1ccc(Oc2ccccc2)cc1)N1CCN(C(=O)c2cccc(F)c2)CC1` [Compound 26, 4-(3-Fluoro-benzoyl)-piperazine-1-carboxylic acid (4-phenoxy-phenyl)-amide] reads 7.00 to 7.96. The result for `O=C(Nc1ccc2sccc2c1)N1CCN(C(=O)c2cccc(F)c2)CC1` [Compound 27, 4-(3-Fluoro-benzoyl)-piperazine-1-carboxylic acid benzo[b]thiophen-5-ylamide] reads 7.00 to 7.96; that for `O=C(Nc1ccc(-c2cccs2)cc1)N1CCN(C(=O)c2cccc(F)c2)CC1` [Compound 28, 4-(3-Fluoro-benzoyl)-piperazine-1-carboxylic acid (4-thiophen-2-yl-phenyl)-amide], 7.00 to 7.96; that for `O=C(Nc1cccc(N2CCOCC2)c1)N1CCN(C(=O)c2cccc(F)c2)CC1` [Compound 31, 4-(3-Fluoro-benzoyl)-piperazine-1-carboxylic acid (3-morpholin-4-yl-phenyl)-amide], 6.00 to 7.00. With `O=C(Nc1cccc(Br)c1)N1CCN(C(=O)c2cccc(F)c2)CC1` [Compound 32, 4-(3-Fluoro-benzoyl)-piperazine-1-carboxylic acid (3-bromo-phenyl)-amide], the pIC50 is 7.00 to 7.96.

Regarding `CCOC(=O)c1ccc(NC(=O)N2CCN(C(=O)c3cccc(F)c3)CC2)cc1` [Compound 33, 4-{[4-(3-Fluoro-benzoyl)-piperazine-1-carbonyl]-amino}-benzoic acid ethyl ester], the pIC50 was 6.00 to 7.00. In the case of `COC(=O)c1cccc(NC(=O)N2CCN(C(=O)c3cccc(F)c3)CC2)c1` [Compound 34, 3-{[4-(3-Fluoro-benzoyl)-piperazine-1-carbonyl]-amino}-benzoic acid methyl ester], the pIC50 was 7.00 to 7.96. `N#Cc1cccc(NC(=O)N2CCN(C(=O)c3cccc(F)c3)CC2)c1` [Compound 35, 4-(3-Fluoro-benzoyl)-piperazine-1-carboxylic acid (3-cyano-phenyl)-amide]: the pIC50 was 7.00 to 7.96.

In the case of `O=C(Nc1cccc([N+](=O)[O-])c1)N1CCN(C(=O)c2cccc(F)c2)CC1` [Compound 36, 4-(3-Fluoro-benzoyl)-piperazine-1-carboxylic acid (3-nitro-phenyl)-amide], the negative logarithm of the IC50 (pIC50) was 6.00 to 7.00. With `O=C(Nc1ccc([N+](=O)[O-])cc1)N1CCN(C(=O)c2cccc(F)c2)CC1` [Compound 37, 4-(3-Fluoro-benzoyl)-piperazine-1-carboxylic acid (4-nitro-phenyl)-amide], the pIC50 was 6.00 to 7.00. Turning to `O=C(Nc1ccc(N2CCOCC2)c(Cl)c1)N1CCN(C(=O)c2cccc(F)c2)CC1` [Compound 38, 4-(3-Fluoro-benzoyl)-piperazine-1-carboxylic acid (3-chloro-4-morpholin-4-yl-phenyl)-amide], the pIC50 was 7.00 to 7.96.

On to `O=C(c1cccc(F)n1)N1CCN(C(=S)Nc2ccc(N3CCOCC3)c(F)c2)CC1` [Compound 40, 4-(6-Fluoro-pyridine-2-carbonyl)-piperazine-1-carbothioic acid (3-fluoro-4-morpholin-4-yl-phenyl)-amide], for which the pIC50 is 6.00 to 7.00.
